Laboratory results as given in US9309314B2, “Polypeptides, nucleic acids and uses thereof” (AGENCY FOR SCIENCE, TECHNOLOGY AND RESEARCH (A*STAR), priority 2013, dated 2016).
“Also recorded” adds a separate entry of the source.

What was measured:
[1] = tested on: hESC-derived mesendoderm cells; experiment: AP-ELA binding to Day 3 mesoendoderm cells after shRNA-mediated depletion of APLNR
Experimental: (§2) HES3 human embryonic stem cells were transduced with 2TU of lentiviruses and selected with 2 ug/ml puromycin for 2 weeks on feeder free culture system.
Briefly, Shef4 and HES3 hESCs were dissociated with Accutase, and 0.14 million cells were plated into each well of a Matrigel-coated 24 well plate in the presence of 5 μM Y-27632 in mTSER1. The media was changed daily for 4 days with mTSER1 until the cells became 90% confluent. On Day 0, mTSER1 was then replaced with differentiation media [RPMI 1640, B-27 supplement with no insulin (Invitrogen)] with 9 μM of GSK3β inhibitor CHIR99201 (BioVision) for 24 hours. The cells were further grown for 2 days in RPMI+B27 without insulin until Day 3, when they were used for qPCR, flow cytometry and AP-binding assays.

APLNR = APLNR knockdown (qPCR, flow cytometry); conditions: FACs
Experimental: as §2
To obtain hESC-derived cells that express APLNR, we adopted a protocol for cardiac differentiation, which was stopped at Day 3 when APLNR expression peaks (Lian et al., 2013). We refer to this intermediary cell type as Day 3-differentiated mesoendoderm. Briefly, Shef4 and HES3 hESCs were dissociated with Accutase, and 0.14 million cells were plated into each well of a Matrigel-coated 24 well plate in the presence of 5 μM Y-27632 in mTSER1. The media was changed daily for 4 days with mTSER1 until the cells became 90% confluent. On Day 0, mTSER1 was then replaced with differentiation media [RPMI 1640, B-27 supplement with no insulin (Invitrogen)] with 9 μM of GSK3β inhibitor CHIR99201 (BioVision) for 24 hours. The cells were further grown for 2 days in RPMI+B27 without insulin until Day 3, when they were used for qPCR, flow cytometry and AP-binding assays.
Cells were resuspended to 2.5 million/ml and stained with 5 μg/ml of a APLNR (mAB856, R&D Systems) in PBS/5% FBS/1 mM EDTA for 30 minutes on ice, followed by wash in buffer, and stain with a mouse-IgG-Alexa Fluo488 (Molecular Probes) for 30 minutes on ice. Flow cytometry was carried out on LSRII (Becton Dickinson) and data analysis was performed with FlowJo (Treestar Inc.).

hESCs [2] = experiment: hESC growth assays (cell counts, colony size, xCELLigence real time cell index); type: cell-based, human; conditions: for growth of knockdown hESCs (real-time cell index, xCELLigence): knockdown hESCs versus control hESCs
Experimental: Feeder-free hESCs were cultured in clumps in mTSER1 (Stem Cell Technologies) on Matrigel (BD 354277).
hESCs were dissociated into single cells using Accutase (Stem Cell Technologies) and plated in the presence of 10 μM Y-27632 (ROCK inhibitor) for 12 hours (Watanabe et al., 2007).
For xCELLigence real time growth assays, 4000 cells were plated per well of an E-plate (ACEA Biosciences) with media changes every 48 hours.
(§1) Recombinant ELA was added at 2.5 uM (or 10 μg/ml). Cell cycle studies were performed with Click-iT EDU staining kit (Invitrogen) and by performing a double thymidine block (2.5 mM thymidine; 16 hour block, 8 hour release, 16 hour block) followed by DAPI staining for DNA content at the indicated times following release.

undifferentiated hESCs = experiment: AP-ELA binding to undifferentiated hESCs after shRNA-mediated depletion of APLNR; conditions: Day 0 undifferentiated hESCs
Experimental: as §2

[3] = tested on: ELA processing and secretion; experiment: Xenopus secretion assay; type: cell-based; conditions: Xenopus laevis embryos injected with human ELA mRNA; increasing amounts
Experimental: ZFNs were purchased from Sigma-Aldrich. 250 pg of mRNAs encoding the ZFN pair were injected into 1-cell stage embryos. ZFN binding sites within exon 1 are as follows: 5′_[…] 3′ (SEQ ID NO: 133) and 5′_[…]_3′ (SEQ ID NO: 134). Sequencing primers flanking the mutation sites are: forward 5′_[…]_3′ (SEQ ID NO: 135), reverse 5′[…]_3′ (SEQ ID NO: 136). For ela overexpression, 200 pg of SP6-transcribed zebrafish ela capped mRNA (Applied Biosystems) was injected into 1-cell stage zebrafish embryos. Translation blocking MOs used for aplnra and aplnrb have been described previously (Scott et al., 2007; Zeng et al., 2007) and were purchased from Gene tools (Oregon, USA). Embryos were injected at 1-cell stage with a combination of 1 ng of aplnra MO and 0.5 ng of aplnrb MO (Zeng et al., 2007). Information on probes used for q-PCR and WISH can be found in Tables E1 and E2. Zebrafish embryos at 100% epiboly were dechorionated and processed for western blotting as previously described (Link et al., 2006). For the Xenopus secretion assay, 16 ng of SP6-transcribed human ELA capped mRNA (Applied Biosystems) was injected into each cell of 4-cell stage embryos. At stage 8, embryos were dechorionated and dissociated in CMFM medium with 5 mM EDTA. […]

hESCs [4] = experiment: Apoptosis assay (Annexin V, activated Caspase 3); type: cell-based, human
Experimental: Apoptosis assays were performed by plating control and Doxycycline-treated cells without Y-27632 onto matrigel for 6 hours, followed by harvesting and staining for Annexin V and activated Caspase 3.

hESCs [5] = experiment: Directed endoderm differentiation of hESCs (SOX17+ cell count); type: cell-based, human; conditions: immunofluorescence
Experimental: Shef4TetR5-shELA and Shef4TetR5-shβ2M cells were cultured in the presence (shELA and shβ2M respectively) or absence (Control) of 20 ng/ml doxycycline for 1 passage (4 days) and dissociated with Accutase. […] 24 hours later, the media was changed to Endo differentiation media 1 [RPMI 1640 (Gibco), 1X B-27 supplement (Invitrogen), 50 ng/ml of Activin A (R&D Systems), 25 ng/ml BMP4 (R&D Systems) and 50 ng/ml bFGF (Invitrogen)] for 3 days. On day 3, the media was changed to Endo differentiation media 2 (RPMI 1640, B27, 50 ng/ml Activin) for 2 more days of culture. Rescue experiments were performed by adding 2.5 uM of ELA peptide to Shef4TetR5-shELA concurrently with doxycycline up to day 3, when the ELA peptide is no longer necessary as judged by downregulation of endogenous ELA.
On day 5, cells were fixed with 4% paraformaldehyde and stained with α SOX17 (AF1924, R&D Systems) and DAPI. For each well, three different randomly selected fields were imaged and the number of nuclei staining positive of SOX17 and DAPI were counted using a custom macro in ImageJ. A minimum of two wells per condition was used for each experiment, and a minimum of two independent experiments were performed to generate the results.

[6] = tested on: mesendodermal genes including GATA6, GATA4, FOXA2, EOMES and BRA; experiment: qPCR of mesendodermal markers in hESCs; type: cell-based, human
Experimental: After the indicated time periods, embryoid bodies were harvested and RNA extracted using RNeasy kit […]. qPCR reactions were carried out using either Universal FastStart SYBR Green Mastermix (Roche) or using the Universal Probe Library system (Roche) in tandem with Taqman Fast Mastermix (Invitrogen). Primer sequences can be found in Table E1.

hESCs [7] = experiment: Cell cycle studies (EDU staining, double thymidine block); type: cell-based, human; conditions: release from double thymidine block
Experimental: as §1

hESCs [8] = experiment: Teratoma analysis; type: in vivo; conditions: 10 million cells subcutaneously into SCID mice, day 60
Experimental: Shef4TetR5-shELA cells were cultured in the presence (shELA) or absence (Control) of 20 ng/ml doxycycline for 3 passages (4 days/passage). Cells were harvested with Accutase (Stemcell Technologies) and resuspended in 1 part Matrigel to 2 parts mTSER1. 10 million cells in 200 μl were injected subcutaneously into the right hind paunches of SCID mice. shELA-injected mice were fed doxycycline (20 μg/ml) for 3 weeks following injection. Mice were sacrificed 60 days post-injection for tumor analysis.

[9] = tested on: pluripotency markers POU5F1, NANOG, SSEA3 and TRA-1-60; experiment: Pluripotency markers in ELA-depleted hESCs (immunofluorescence, qPCR); type: cell-based, human; conditions: prolonged ELA depletion in hESCs
Experimental: […]. Neomycin-resistant cells were clonally expanded and assayed for doxycycline (20 ng/ml)-inducible knockdown. Data from one representative clone (Shef4TetR5 shELA) are shown in this paper. Shef4TetR5 shβ2M were derived as previously described (Zafarana et al., 2009). Unless otherwise stated, ELA knockdown was induced on Day −4 with 20 ng/ml doxycycline to generate shELA cells.
Polyclonal antibodies were raised against a human N-terminal epitope (nh2-[…]) (SEQ ID NO: 53), C-terminal epitope ([…]-cooh) (SEQ ID NO: 52) or whole mature ELABELA peptide with an intramolecular cysteine bond (nh2-[…]-cooh) (SEQ ID NO: 2) and peptide-affinity purified from rabbit and goat sera. […] For western blotting and immunofluoresence assays, ELA antibodies were used at 1 μg/mL. All other antibodies are commercially available: TGN-46 (Serotec # AHP500GT); SSEA-3 (Stem Cell Tech #60061AD); TRA-1-60 (BD #560173); SOX17 (R&D # AF1924); POU5F1 (SCBT #sc-5279).

| Compound | levels of AP-ELA bound after APLNR depletion [1] | cell surface APLNR levels (APLNR; Day 0 undifferentiated hESCs) | cell surface APLNR levels (APLNR; Day 3 mesoendoderm cells) | growth of knockdown hESCs (real-time cell index, xCELLigence) (hESCs [2]) | levels of AP-ELA bound after APLNR depletion (undifferentiated hESCs) | ELA processing and secretion [3] | apoptosis (hESCs [4]; FACs, ANNEXIN V and activated CASPASE 3, single cells) | increase in the number of ANNEXIN V and activated CASPASE 3-positive cells (hESCs [4]; compared to control hESCs) | growth of hESCs by cell numbers (hESCs [2]; FIG. 3C, relative to untreated hESCs) | growth of hESCs relative to untreated cells (hESCs [2]; hESCs pulsed with peptide, documented by cell counts, colony size and real-time cell indices) | colony size (hESCs [2]; knockdown hESC colonies versus control) | directed endoderm differentiation (SOX17 expression) (hESCs [5]) | expression of mesendodermal markers [6] | cell cycle progression (hESCs [7]) | teratoma / tumor formation (hESCs [8]) | pluripotency markers and colony morphology [9] |
| --- | --- | --- | --- | --- | --- | --- | --- | --- | --- | --- | --- | --- | --- | --- | --- | --- |
| shAPLNR: lentiviral shRNA hairpins against APLNR (constructs shAPLNR-1 and shAPLNR-2) (guide 1 ACACGTACCGGGACTATGA; guide 2 CCATCATGCTGACCTGTTA) | sufficient to significantly diminish the levels of AP-ELA; also recorded: significantly reduced AP-ELA binding | No changes | significantly reduced cell surface APLNR levels | not compromised; also recorded: do not show impaired growth | could not reduce binding of AP-ELA; also recorded: does not affect |  |  |  |  |  |  |  |  |  |  |  |
| C[C@H]1CCC/C=C/[C@@H]2C[C@H](O)C[C@H]2[C@H](O)/C=C/C(=O)O1 [Brefeldin A] |  |  |  |  |  | able to block ELA processing and secretion; also recorded: blocks ELA processing |  |  |  |  |  |  |  |  |  |  |
| shELA: doxycycline-inducible shRNA, sequence GTGATTCTCGTGCCTCAAC targeting the 3′UTR of ELA, in Shef4TetR5 hESCs |  |  |  | markedly reduced growth rates; also recorded: significant growth impairment |  |  | significantly higher rate; also recorded: rapid apoptosis | approximately 40% | reduced growth | reduced growth | less than half the size; also recorded: twice as small | impaired endoderm differentiation; also recorded: markedly impaired | reduced levels; also recorded: conversely downregulated | not due to the activation of G1/S checkpoint or lengthened G0 residence; also recorded: do not display overt changes in cell cycle progression | did not form teratomas | downregulation of pluripotency markers; also recorded: lose expression of pluripotency markers; also recorded: gradually differentiate and lose pluripotency markers |
